Marks after values point to notes of the source that are not given here.
Assay: Pharmacokinetics in plasma following single dose and repeated doses of Compound A 1.5 succinate
Type: in vivo, human
Conditions: Compound B
Protocol: In order to evaluate the PK when administered as a single dose, a single dose of Compound A for each treatment group (at the corresponding dosage for that group) was administered on Day 1. Compound A was administered when fasted, immediately after waking up with at least 10 hours fasting. Taking any meal was prohibited for 2 hours after administration and only drinking water was allowed.
Cycle 1 was started between 8 and 10 days after dosing in Cycle 0 and Compound A was administered continuously once daily. Compound A was administered at least 2 hours after breakfast, and any food intake was prohibited for 1 hour after administration. However, on Day 8 of Cycle 1, Compound A was administered immediately after waking up while the subject was fasted after at least 10 hours of overnight fasting in order to evaluate the PK. Taking any meals was prohibited for 2 hours after administration and only drinking water was allowed.
Plasma concentration profile of Compound A following a single dose and repeated doses of Compound A 1.5 succinate are shown in FIG. 1 and FIG. 2, respectively. The profile shown in FIG. 2 is that at steady state.
The pharmacokinetic parameters of Compound A following the single dose and repeated doses of Compound A 1.5 succinate are shown in the following table. The pharmacokinetic parameters of Compound A following repeated doses of Compound A 1.5 succinate shown below are those at steady state.
The pharmacokinetic parameters of Compound A following the single dose and repeated doses of Compound A 1.5 succinate updated after obtaining the above data are shown in the following table. The pharmacokinetic parameters of Compound A following repeated doses of Compound A 1.5 succinate shown below are those at steady state.
The pharmacokinetic parameters of Compound B following the single dose and repeated doses of Compound A 1.5 succinate are shown in the following table. The pharmacokinetic parameters of Compound B following repeated doses of Compound A 1.5 succinate shown below are those at steady state.

[1] = repeated once-daily doses of Compound A 30 mg, steady state (n = 2)
[2] = repeated once-daily doses of Compound A 60 mg, steady state (n = 2)
[3] = repeated once-daily doses of Compound A 100 mg, steady state (n = 3)
[4] = repeated once-daily doses of Compound A 140 mg, steady state (n = 3)
[5] = repeated once-daily doses of Compound A 180 mg, steady state (n = 3)
[6] = single dose of Compound A 30 mg (n = 2)
[7] = single dose of Compound A 60 mg (n = 3)
[8] = single dose of Compound A 100 mg (n = 3)
[9] = single dose of Compound A 140 mg (n = 3)
[10] = single dose of Compound A 180 mg (n = 3)

CNC(=O)n1ccc2cc(Oc3ccnc(NC(=O)c4ccc(C5CCNCC5)cc4)c3)c(OCCOC)cc21 [Compound B, 6-(2-Methoxyethoxy)-N-methyl-5-((2-(4-(piperidin-4-yl)benzamide)pyridin-4-yl)oxy)-1H-indole-1-carboxamide]
AUC(0-t) [1]: 194 ng·h/mL
Cavg [1]: 7.71 ng/mL
Cmax [1]: 12.4 ng/mL
Cmin [1]: 5.19 ng/mL
tmax, median (minimum − maximum) [1]: 3.49 (1.97-5.00) h
AUC(0-t) [2]: 565 ^a^ h* ng/mL
Cavg [2]: 22.6 ^a ng/mL
Cmax [2]: 44.2 ^a ng/mL
Cmin [2]: 12.3 ^a ng/mL
tmax, median (minimum − maximum) [2]: 2.54 (2.07-3.00) ^a h
AUC(0-t) [3]: 805 ± 195 ng·h/mL
Cavg [3]: 32.3 ± 7.79 ng/mL
Cmax [3]: 55.4 ± 14.5 ng/mL
Cmin [3]: 17.4 ± 7.37 ng/mL
tmax, median (minimum − maximum) [3]: 5.00 (4.98-5.05) h
AUC(0-t) [4]: 1620 ± 460 ng·h/mL
Cavg [4]: 66.1 ± 18.8 ng/mL
Cmax [4]: 106 ± 51.8 ng/mL
Cmin [4]: 41.5 ± 10.9 ng/mL
tmax, median (minimum − maximum) [4]: 5.00 (2.98-5.08) h
AUC(0-t) [5]: 1500 ± 686 ng·h/mL
Cavg [5]: 60.4 ± 27.7 ng/mL
Cmax [5]: 98.0 ± 39.5 ng/mL
Cmin [5]: 32.8 ± 13.0 ng/mL
tmax, median (minimum − maximum) [5]: 5.00 (3.05-5.08) h
AUC(0-inf) [6]: 297 ng·h/mL
AUC(0-t) [6]: 274 ng·h/mL
Cmax [6]: 19.2 ng/mL
t1/2 [6]: 21.5 h
tmax, median (minimum − maximum) [6]: 3.59 (2.02-5.15) h
AUC(0-inf) [7]: 687 ± 354 ng·h/mL
AUC(0-t) [7]: 652 ± 352 ng·h/mL
Cmax [7]: 35.1 ± 19.1 ng/mL
t1/2 [7]: 26.1 ± 10.2 h
tmax, median (minimum − maximum) [7]: 4.98 (3.00-5.07) h
AUC(0-inf) [8]: 699 ± 163 ng·h/mL
AUC(0-t) [8]: 647 ± 153 ng·h/mL
Cmax [8]: 38.4 ± 4.36 ng/mL
t1/2 [8]: 20.0 ± 0.794 h
tmax, median (minimum − maximum) [8]: 4.95 (2.97-5.10) h
AUC(0-inf) [9]: 1410 ± 216 ng·h/mL
AUC(0-t) [9]: 1350 ± 233 ng·h/mL
Cmax [9]: 63.8 ± 36.1 ng/mL
t1/2 [9]: 40.50 ± 6.46 h
tmax, median (minimum − maximum) [9]: 5.00 (4.88-5.08) h
AUC(0-inf) [10]: 1370 ± 703 ng·h/mL
AUC(0-t) [10]: 1320 ± 693 ng·h/mL
Cmax [10]: 50.7 ± 20.7 ng/mL
t1/2 [10]: 39.9 ± 6.27 h
tmax, median (minimum − maximum) [10]: 5.00 (3.00-5.02) h

Reference: patent publication US20200297711A1, “PHARMACEUTICAL COMPOSITION COMPRISING FGFR SELECTIVE TYROSINE KINASE INHIBITOR” (priority 2017, published 2020)
